Results on one molecule are retold here after patent publication US11738037B2, “Agent for preventing or improving decline in brain function” (KYOWA HAKKO BIO CO., LTD., priority 2012, dated 2023).

Structures are written as SMILES.

Holding throughout (type): in vivo, C57BL/6J mice
The test system of assay [1] is bilateral common carotid arteries occlusion mice. Description: Y-maze test (spontaneous alternation behavior). Particulars: oral, after 7 days of administration, FIG. 1. The protocol:
(§1) Experimental Example: 10-week-old male C57BL/6J mice (CLEA Japan, Inc. approximately 25 g of average body weight per mouse) were preliminarily acclimated for 1 week, and provided for experiments. L-citrulline and citicoline were obtained from KYOWA HAKKO BIO CO., LTD.
(§2) C57BL/6J mice were divided into a sham-operation group (Group 1) and a bilateral common carotid arteries occlusion group, which was performed under halothane anesthesia for 20 minutes. One day after reperfusion, the bilateral common carotid arteries occlusion group was further divided into a distilled water-treated group (Group 2), a low-dose L-citrulline-treated group (40 mg/kg: Group 3), a low-dose citicoline-treated group (40 mg/kg: Group 4), a high-dose L-citrulline-treated group (100 mg/kg: Group 5), a high-dose citicoline-treated group (100 mg/kg: Group 6), and a combination treatment group of a low dose of L-citrulline and a low dose of citicoline (each 40 mg/kg: Group 7). Each sample was orally administered for 12 days. […] After evaluating learning memory functions, the hippocampus was removed and viability of hippocampal nerve cells was evaluated.
In the Y-maze test, a Y-maze apparatus with three arms (50×16×32 cm) was used. […] The sequence of arm entries was recorded. The number of entries into each arm was counted during the measurement time, which was defined as the total number of entries. […]

Assay [2] has the same test system. The assay can be described thus: Passive avoidance test. Particulars: oral, after 7 days of administration, compared to Group 2, FIG. 2. The protocol: as §1
(§3) C57BL/6J mice were divided into a sham-operation group (Group 1) and a bilateral common carotid arteries occlusion group, which was performed under halothane anesthesia for 20 minutes. […] After evaluating learning memory functions, the hippocampus was removed and viability of hippocampal nerve cells was evaluated.
The passive avoidance test was performed using a box consisting of dark (25×25×25 cm) and light compartments (14×10×25 cm) and being equipped with an electrical stimulation apparatus at the bottom of the dark compartment. […] Twenty four hours after training, the mouse was placed again in the light compartment, and the latency time spent in the light compartment was recorded with a maximum latency of 300 seconds.

The test system is the same in assay [3]. The assay can be described thus: Novel object recognition test. The settings on record: oral, after 7 days of administration, novel vs familiar object, FIG. 3. The protocol:
as §1
as §2, with “7).” for “7). Each sample was orally administered for 12 days.”
The novel object recognition test was performed after mice were individually acclimated to the open field apparatus (35×25×35 cm) for 2 days. […] A ratio of the frequency of exploring the familiar or novel object over the total exploration frequency was calculated, and used as an index for visual recognition memory.

For assay [4], the system named is hippocampal nerve cells (CA1 pyramidal cell layer). Description: Evaluation of viability of hippocampal nerve cells. Particulars: oral for 12 days, compared to Group 2, FIG. 4. The protocol:
as §1, §3
Twelve days after bilateral occlusion of the common carotid arteries, mice were anesthetized with pentobarbital sodium, and perfused with ice-cold phosphate buffer (PBS, pH 7.4) until the blood in the body was completely removed. […] Surviving and non-surviving nerve cells in the CA1 pyramidal cell layer of the hippocampus were counted at 1.4 to 1.8 mm posterior to bregma, and cells with PI-positive nuclei and typical morphological characteristics were defined as surviving nerve cells. The cell viability was calculated from a ratio to the average number of surviving nerve cells in Group 1.

Consider `NC(=O)NCCC[C@H](N)C(=O)O` [L-citrulline], for which the “spontaneous alternation behavior rate (Alternation)” value in assay [1] (high dose 100 mg/kg, compared to Group 2) is listed as “improved effect of memory behavior”; in assay [1] (low dose 40 mg/kg, compared to distilled water-treated occlusion group (Group 2)), “Alternation cannot be improved”. For the same molecule, the “time spent in the light compartment (Latency time)” value in assay [2] (high dose 100 mg/kg) is “improved effect of memory behavior”; in assay [2] (low dose 40 mg/kg) it was “latency time cannot be improved”. Also, the “frequency of exploring the novel object” value in assay [3] (high dose 100 mg/kg) is on record as “remarkably improved effect of memory behavior”; in assay [3] (low dose 40 mg/kg), “frequency of exploring the novel object cannot be increased”. Besides, the results for the “viability of hippocampal nerve cells” value in assay [4] (high dose 100 mg/kg) and in assay [4] (low dose 40 mg/kg) were “nerve cell-protecting effect” and “viability of hippocampal nerve cells cannot be improved”, respectively.
